Test results from ChEMBL document CHEMBL1949526, “Cyclic hydroxyamidines as amide isosteres: discovery of oxadiazolines and oxadiazines as potent and highly efficacious γ-secretase modulators in vivo” (J Med Chem, 2012).

Assays:
[1] = Oral bioavailability in dog at 10 mg/kg; assay type: ADME, organism-based, Canis lupus familiaris; conditions: in vivo
[2] = Permeability from apical to basolateral side of human Caco2 cells; assay type: ADME, cell-based; conditions: Caco-2, read-out: permeability
[3] = Clearance in dog at 3 mg/kg, iv; assay type: ADME, organism-based, Canis lupus familiaris; parameters: dose 3 mg/kg, route intravenous; conditions: in vivo
[4] = Clearance in monkey at 3 mg/kg, iv; assay type: ADME, organism-based, Macaca mulatta; parameters: dose 3 mg/kg, route intravenous; conditions: rhesus monkey, in vivo
[5] = AUC in rat at 10 mg/kg, po; assay type: ADME, organism-based, Plasma; parameters: dose 10 mg/kg, route oral; conditions: plasma
[6] = Volume of distribution at steady state in dog at 3 mg/kg, iv; assay type: ADME, organism-based, Canis lupus familiaris; parameters: dose 3 mg/kg, route intravenous; conditions: in vivo, read-out: Vdss
[7] = Half life in monkey at 3 mg/kg, iv; assay type: ADME, organism-based, Macaca mulatta; parameters: dose 3 mg/kg, route intravenous; conditions: rhesus monkey, in vivo
Rattus norvegicus [8] = assay: Antialzheimer activity in CD rat assessed as reduction in amyloid beta42 level in cortex at 10 mg/kg, po after 3 hrs by alphaLISA analysis; assay type: functional; parameters: scale not given: the % may be the effect or the level left
Rattus norvegicus [9] = assay: Antialzheimer activity in CD rat assessed as reduction in total amyloid beta level in plasma at 10 mg/kg, po after 3 hrs by alphaLISA analysis; assay type: functional; parameters: scale not given: the % may be the effect or the level left
[10] = AUC in dog at 10 mg/kg, po; assay type: ADME, organism-based, Canis lupus familiaris, Plasma; parameters: dose 10 mg/kg, route oral; conditions: plasma
Rattus norvegicus [11] = assay: Antialzheimer activity in CD rat assessed as reduction in amyloid beta42 level in plasma administered as po for 6 days by alphaLISA analysis relative to total amyloid beta40 level; assay type: functional, organism-based
Rattus norvegicus [12] = assay: Antialzheimer activity in CD rat assessed as reduction in amyloid beta42 level in plasma administered as po for 6 days by alphaLISA analysis relative to total amyloid beta level; assay type: functional, organism-based
[13] = Oral bioavailability in rat at 10 mg/kg; assay type: ADME, organism-based; conditions: in vivo
Rattus norvegicus [14] = assay: Antialzheimer activity in CD rat assessed as reduction in amyloid beta42 level in CSF at 10 mg/kg, po after 3 hrs by alphaLISA analysis; assay type: functional; parameters: scale not given: the % may be the effect or the level left
Gamma-secretase [15] = assay: Modulation of gamma-secretase-mediated cleavage of human APP Swedish and London mutation expressed in HEK293 cells assessed as inhibition of amyloid beta42 production after 5 hrs by sandwich immunoassay; assay type: cell-based
Rattus norvegicus [16] = assay: Antialzheimer activity in CD rat assessed as reduction in amyloid beta40 level in plasma at 10 mg/kg, po after 3 hrs by alphaLISA analysis; assay type: functional; parameters: scale not given: the % may be the effect or the level left
Rattus norvegicus [17] = organism: Rattus norvegicus; assay: Toxicity in rat assessed as decrease in thymus size at highest tolerable dose; assay type: organism-based; conditions: in vivo
Rattus norvegicus [18] = organism: Rattus norvegicus; assay: Toxicity in rat assessed as effect on adipsin expression in jejunum at highest tolerable dose; assay type: organism-based; conditions: in vivo
[19] = AUC in monkey at 10 mg/kg, po; assay type: ADME, organism-based, Macaca mulatta; parameters: dose 10 mg/kg, route oral; conditions: rhesus monkey, plasma
Rattus norvegicus [20] = assay: Antialzheimer activity in po dosed CD rat assessed as reduction in amyloid beta42 level in CSF after 3 hrs by alphaLISA analysis relative to amyloid beta40 level; assay type: functional, organism-based
[21] = Oral bioavailability in monkey at 10 mg/kg; assay type: ADME, organism-based, Macaca mulatta; conditions: rhesus monkey, in vivo
Gamma-secretase [22] = assay: Modulation of gamma-secretase-mediated notch signaling in HEK293 cells transfected with human APP Swedish and London mutation and Notch1 with truncated extracellular EGF repeat domain assessed as production of notch intracellular domain by MSD-based sandwich immunoassay; assay type: cell-based
[23] = Half life in dog at 3 mg/kg, iv; assay type: ADME, organism-based, Canis lupus familiaris; parameters: dose 3 mg/kg, route intravenous; conditions: in vivo
[24] = Ratio of drug level in brain to plasma in CD rat at 10 mg/kg, po after 3 hrs; assay type: ADME, organism-based; parameters: dose 10 mg/kg, route oral; conditions: read-out: BPR
Gamma-secretase [25] = assay: Modulation of gamma-secretase-mediated cleavage of human APP Swedish and London mutation expressed in HEK293 cells assessed as inhibition of amyloid beta40 production after 5 hrs by sandwich immunoassay; assay type: cell-based
[26] = Cmax in rat at 10 mg/kg, po; assay type: ADME, organism-based; parameters: dose 10 mg/kg, route oral; conditions: in vivo
Rattus norvegicus [27] = assay: Antialzheimer activity in po dosed CD rat assessed as reduction in amyloid beta42 level in cortex after 3 hrs by alphaLISA analysis relative to amyloid beta40 level; assay type: functional, organism-based
Rattus norvegicus [28] = assay: Antialzheimer activity in CD rat assessed as reduction in amyloid beta42 level in plasma at 10 mg/kg, po after 3 hrs by alphaLISA analysis; assay type: functional; parameters: scale not given: the % may be the effect or the level left
Rattus norvegicus [29] = organism: Rattus norvegicus; assay: Toxicity in rat assessed as effect on HES-1 expression in jejunum at highest tolerable dose; assay type: organism-based; conditions: in vivo
[30] = Volume of distribution at steady state in rat at 3 mg/kg, iv; assay type: ADME, organism-based; parameters: dose 3 mg/kg, route intravenous; conditions: in vivo, read-out: Vdss
Rattus norvegicus [31] = assay: Antialzheimer activity in CD rat assessed as reduction in amyloid beta42 level in cortex administered as po for 6 days by alphaLISA analysis relative to total amyloid beta level; assay type: functional, organism-based
[32] = Cmax in dog at 10 mg/kg, po; assay type: ADME, organism-based, Canis lupus familiaris; parameters: dose 10 mg/kg, route oral; conditions: in vivo
Rattus norvegicus [33] = organism: Rattus norvegicus; assay: Toxicity in rat assessed as decrease in body weight at highest tolerable dose; assay type: organism-based; conditions: in vivo
Rattus norvegicus [34] = assay: Antialzheimer activity in CD rat assessed as reduction in amyloid beta40 level in cortex at 10 mg/kg, po after 3 hrs by alphaLISA analysis; assay type: functional; parameters: scale not given: the % may be the effect or the level left
Rattus norvegicus [35] = assay: Antialzheimer activity in CD rat assessed as reduction in amyloid beta42 level in CSF administered as po for 6 days by alphaLISA analysis relative to total amyloid beta40 level; assay type: functional, organism-based
[36] = Clearance in rat at 3 mg/kg, iv; assay type: ADME, organism-based; parameters: dose 3 mg/kg, route intravenous; conditions: in vivo
Canis familiaris = organism: Canis familiaris; assay: Cardiotoxicity in dog assessed as effect on electrocardiographic QTc interval at compound concentration required for pharmacological effect; assay type: toxicity, organism-based, Canis lupus familiaris; conditions: in vivo
Gamma-secretase [37] = assay: Modulation of gamma-secretase-mediated cleavage of human APP Swedish and London mutation expressed in HEK293 cells assessed as reduction of total amyloid beta level after 5 hrs by sandwich immunoassay; assay type: cell-based
[38] = Half life in rat at 3 mg/kg, iv; assay type: ADME, organism-based; parameters: dose 3 mg/kg, route intravenous; conditions: in vivo
Rattus norvegicus [39] = assay: Antialzheimer activity in po dosed CD rat assessed as reduction in amyloid beta42 level in plasma after 3 hrs by alphaLISA analysis relative to amyloid beta40 level; assay type: functional, organism-based
Rattus norvegicus [40] = organism: Rattus norvegicus; assay: Toxicity in rat assessed as production of goblet cell meta/hyperplasia in ileum at highest tolerable dose; assay type: organism-based; conditions: in vivo
Rattus norvegicus [41] = assay: Antialzheimer activity in CD rat assessed as reduction in amyloid beta42 level in cortex administered as po for 6 days by alphaLISA analysis relative to total amyloid beta40 level; assay type: functional, organism-based
Rattus norvegicus [42] = assay: Antialzheimer activity in CD rat assessed as reduction in amyloid beta40 level in CSF at 10 mg/kg, po after 3 hrs by alphaLISA analysis; assay type: functional; parameters: scale not given: the % may be the effect or the level left
[43] = Cmax in monkey at 10 mg/kg, po; assay type: ADME, organism-based, Macaca mulatta; parameters: dose 10 mg/kg, route oral; conditions: rhesus monkey, in vivo
Rattus norvegicus [44] = assay: Antialzheimer activity in po dosed CD rat assessed as reduction in amyloid beta42 level in plasma after 3 hrs by alphaLISA analysis relative to total amyloid beta level; assay type: functional, organism-based
[45] = Volume of distribution at steady state in monkey at 3 mg/kg, iv; assay type: ADME, organism-based, Macaca mulatta; parameters: dose 3 mg/kg, route intravenous; conditions: rhesus monkey, in vivo, read-out: Vdss
Rattus norvegicus [46] = assay: Antialzheimer activity in po dosed CD rat assessed as reduction in amyloid beta42 level in cortex after 3 hrs by alphaLISA analysis relative to total amyloid beta level; assay type: functional, organism-based
Rattus norvegicus [47] = assay: Antialzheimer activity in CD rat assessed as reduction in total amyloid beta level in CSF at 10 mg/kg, po after 3 hrs by alphaLISA analysis; assay type: functional; parameters: scale not given: the % may be the effect or the level left
Rattus norvegicus [48] = assay: Antialzheimer activity in CD rat assessed as reduction in amyloid beta42 level in CSF administered as po for 6 days by alphaLISA analysis relative to total amyloid beta level; assay type: functional, organism-based
[49] = Plasma concentration in CD rat at 10 mg/kg, po after 3 hrs; assay type: ADME, organism-based; parameters: dose 10 mg/kg, route oral
Rattus norvegicus [50] = assay: Antialzheimer activity in po dosed CD rat assessed as reduction in amyloid beta42 level in CSF after 3 hrs by alphaLISA analysis relative to total amyloid beta level; assay type: functional, organism-based

Work on `COc1cc(/C=C2\CCCN3C2=NO[C@]3(CO)c2ccc(F)cc2)ccc1-n1cnc(C)c1` yielded a bioavailability [1] of 38%, a Papp A→B [2] of 302 nm/s and a clearance [3] of 0.3 L/h/kg. It also gave a clearance [4] of 0.36 L/h/kg, an AUC [5] of 61 µM·h and a Vd [6] of 0.4 L/kg. The half-life [7] was 3 h, the Activity (Rattus norvegicus [8]) was 37% and the Activity (Rattus norvegicus [9]) was 77%. The AUC [10] was 26 µM·h, the Activity (Rattus norvegicus [11]) was “Dose-dependent effect” and the Activity (Rattus norvegicus [12]) was “Dose-dependent effect”. It also gave a bioavailability [13] of 98%, an Activity (Rattus norvegicus [14]) of 66% and an IC50 (Gamma-secretase [15]) of 0.029 µM. For the same compound, the Activity (Rattus norvegicus [16]) was 44%, the Activity (Rattus norvegicus [17]) was “Non-toxic” and the Activity (Rattus norvegicus [18]) was “Non-toxic”. The AUC [19] was 30 µM·h, the Activity (Rattus norvegicus [20]) was “Dose-dependent effect” and the bioavailability [21] was 48%. It also gave an IC50 (Gamma-secretase [22]) of over 50 µM, a half-life [23] of 1.4 h and a Kp at 3 h [24] of 0.15. For the same compound, the IC50 (Gamma-secretase [25]) was 0.17 µM, the Cmax [26] was 7.5 µM and the Activity (Rattus norvegicus [27]) was “Dose-dependent effect”. The Activity (Rattus norvegicus [28]) was 41%, the Activity (Rattus norvegicus [29]) was “Non-toxic” and the Vd [30] was 1.6 L/kg. The Activity (Rattus norvegicus [31]) was “Dose-dependent effect”, the Cmax [32] was 4 µM and the Activity (Rattus norvegicus [33]) was “Non-toxic”. For the same compound, the Activity (Rattus norvegicus [34]) was 77%, the Activity (Rattus norvegicus [35]) was “Dose-dependent effect” and the clearance [36] was 0.366 L/h/kg. The Activity (Canis familiaris) was “Non-toxic”, the IC50 (Gamma-secretase [37]) was 14.1 µM and the half-life [38] was 3.4 h. The Activity (Rattus norvegicus [39]) was “Dose-dependent effect”, the Activity (Rattus norvegicus [40]) was “Non-toxic” and the Activity (Rattus norvegicus [41]) was “Dose-dependent effect”. For the same compound, the Activity (Rattus norvegicus [42]) was 104%, the Cmax [43] was 8.8 µM and the Activity (Rattus norvegicus [44]) was “Dose-dependent effect”. For the same compound, the Vd [45] was 1.4 L/kg, the Activity (Rattus norvegicus [46]) was “Dose-dependent effect” and the Activity (Rattus norvegicus [47]) was 120%. The Activity (Rattus norvegicus [48]) was “Dose-dependent effect”, the concentration at 3 h [49] was 3.6 µM and the Activity (Rattus norvegicus [50]) was “Dose-dependent effect”.
